Entries after “also recorded” stand apart in the source; their conditions may differ. Like-named read-outs stand apart in the source and are kept apart here.
Assays:
[1] = Spontaneous decomposition in solution (h.p.l.c. / nmr); type: physicochemical; conditions: for % of the original remaining: 0.2 M aqueous sodium phosphate pH 6.85, room temperature, h.p.l.c.
Method: This instability prevented full characterisation of the acid (I), so it was converted with diazomethane to its methyl ester (IV) in an overall yield of 16% from the benzyl ester (II) (A.G. Brown et al, J. Chem. Soc. Perkin Trans. I, 1984, 635). The spectral data obtained for the methyl ester (IV) were indistinguishable from those obtained by A. G. Brown et al 1984.
Benzyl 3-oxoethylidene-7-oxo-4-oxa-1-azabicyclo[3.2.0]heptane-2-carboxylate (II) (50 mg, 0. 17m mol) was dissolved in tetrahydrofuran (5 ml) and 0.2 M sodium phosphate adjusted to pH 6.85 (5 ml), and hydrogenated at ambient temperature and pressure for ten minutes with 10% palladium on carbon (40 mg). The reaction mixture was rapidly filtered and evaporated to dryness while the temperature was maintained below 10° C. The residue was immediately redissolved in D2O to give a solution of the title compound (III). δH(250 MHz, D20) inter alia E isomer 3.25 (1H, d, J 17.4 Hz, 6β-H), 3.65 (1H, dd, J 17.4 and 2.9 Hz, 6 α-H), 5.73 (1H, d, J 1.2 Hz, 2-H), 5.79 (1H, dd, J 8.3 and 1 Hz, 8-H), 5.94 (1H, d, 2.7 Hz, 5-H), 9.55 (1H, d, J 8.3 Hz, 9-H), Z isomer 3.29 (1H, d, J 17.3 Hz, 6β-H), 3.65 (1H, dd, J 17.4 and 2.9 Hz, 6 α-H), 5.27 (1H, s, 2-H), 5.50 (1H, d, J 8.2 Hz, 8-H), 6.00 (1H, d, J2.7 Hz, 5-H), and 9.70 (1H, d, J 8.2 Hz, 9-H). The E and Z isomers were assigned on the relative positions of their 8-proton resonance (Gerald Brooks+Eric Huit J.Chem.Soc. Perkin Trans. I (1983) 2513) and were in the ratio E-Z (2:1). Material prepared by the above hydrogenation with water substituting for the phosphate solution and adjustment of the pH of the reaction mixture to 6.5 with 0.1 M NaOH gave (III) (Yield 35% from NaOH consumed), λmax. (H2O) 262 nm; vmax.(KBr) 3 400, 1 792 (br), and 1 640 cm^−1 (br), […]; thin layer chromatography on silica 60 eluted with butan- 1-ol-ethanol-water (4:1:1) and visualised with Schiffs reagent gave a blue zone (Rf:0.52). Addition of a known weight of fumaric acid to the crude product solution followed by evaporation and nmr analysis indicated a yield of 20% by comparison of the intensity of the fumarate protons with the intensity of the aldehydic proton of (M). When this solution was allowed to stand at room temperature for 3.5 hours, (III) was seen to have decomposed to a yield of 3.2%.

[2] = tested on: broken cell suspension (BCS) of S.clavuligerus SC2; experiment: Enzymic reduction of (III) to clavulanic acid by broken cell suspension, KaG bioassay; type: biochemical, Streptomyces clavuligerus
Excerpt: Compound (I) was reduced to clavulanic acid by NADPH in the presence of a broken cell suspension of S. clavuligerus SC2 (Table 1). (SC2 is a reisolate of ATCC 27064). The clavulanic acid produced was detected by KaG bioassay (AG. Brown et al J. Antibiot., 1976, 29, 668) and chromatographic tapes loaded with the reaction mixture, were compared with standards to confirm the presence of clavulanic acid. The reduction was complete before a sample could be removed from the reaction vessel, but appeared to give clavulanic acid in only 14% yield. However, should the enzyme be capable of reducing only the Z isomer of (I) (the geometry of clavulanic acid), the yield is 42%.
Enzymic reduction of (III) to clavulanic acid:- solution of (III) (0.23 mg, 1 μmol, estimated by titration of acid (I)) in water ([…] 1μmol) was added to washed 48 hour S.clavuligerus SC2 cells which had been sonicated (EP 0213 914 example 20) (0.5 ml). The suspension was treated with 10 mM NADPH (0.1 ml, 1 umol), made up to one milliliter with 50 mM MOPS buffer at pH 7.0 and incubated in stoppered tubes at 26° C. Samples (0.2 ml) were removed, treated with methanol (0.2 ml) for 5 minutes, and centrifuged. The clear supernatants were made up to 1.6 ml with MOPS buffer and assayed on discs by the KaG method. Undiluted reaction mixture was applied to Whatman No. 1 chromatography tapes which were developed in either butan-1-ol-acetic acid-water (12:3:5) or butan-1-01-ethanol-water (7:1:2), dried, and visualised by application to a KaG bioassay plate. Standard clavulanic acid solutions were developed and visualised similarly.

[3] = tested on: broken cell suspension (BCS) of S.clavuligerus SC2; experiment: as above; type: biochemical, Streptomyces clavuligerus; remark: listed apart in the source
[4] = molecular target: Klebsiella E70 β-lactamase; experiment: β-lactamase inhibition by automated chromogenic substrate assay of Reading and Farmer; type: biochemical
Method: β-lactamase inhibition by (III): A solution of III was tested as a β-lactamase inhibitor by the automated chromogenic substrate assay of C. Reading and T. Farmeragainst Klebsiella E70 β-lactamase. Taking the yield of (III) from the hydrogenation reaction as 35% gave an I^50 with pre-incubation of 0.01 μg/ml and without pre-incubation of enzyme and inhibitor of 1μg/ml.

[5] = tested on: β-lactamase; experiment: β-lactamase inhibitory activity (method not specified); type: biochemical
[6] = Boiled BCS + (III) + NADPH 1 mM

In the case of `O=CC=C1OC2CC(=O)N2C1C(=O)[O-].[Na+]` (stereo not shown) [(III), Sodium 3-Oxoethylidene-7-oxo-4-oxa-1-azabicyclo (3.2.0)heptane-2-carboxylate], the “% of the original remaining” value ([1]; after 35 minutes) is reported as 85%, the “% of the original remaining” value ([1]; after 53 minutes) is reported as 63% and the “yield remaining after decomposition on standing (nmr vs fumaric acid)” value ([1]; room temperature for 3.5 hours, initial yield 20%) is reported as 3.2%. For the same molecule, the “time in which about half had decomposed” value ([1]; solution of the salt, room temperature, repeated h.p.l.c. analysis) was “one”, the “Clavulanic Acid at time 0 mins (KaG bioassy)” value (from here on “Clavulanic Acid at time 0 mins”) ([2]; BCS + (III) + NADPH 1 mM) was 28.8 µg/mL and the “Clavulanic Acid at time 60 mins” value ([2]; BCS + (III) + NADPH 1 mM) was 27.2 µg/mL. For the same molecule, the “Clavulanic Acid at time 0 mins” value [2, 6] was 6.6 µg/mL, the “Clavulanic Acid at time 60 mins” value [2, 6] was 6.6 µg/mL and the “Clavulanic Acid at time 0 mins” value ([3]; (III) + NADPH 1 mM, no BCS) was 8.8 µg/mL. For the same molecule, the “Clavulanic Acid at time 60 mins” value ([3]; (III) + NADPH 1 mM, no BCS) was 7.2 µg/mL, the “Clavulanic Acid at time 0 mins” value ([3]; BCS + (III) + NADH 1 mM) was 6.2 µg/mL and the “Clavulanic Acid at time 60 mins” value ([3]; BCS + (III) + NADH 1 mM) was 6.6 µg/mL. The “Clavulanic Acid at time 0 mins” value ([3]; BCS + (III)) was 8.0 µg/mL, the “Clavulanic Acid at time 60 mins” value ([3]; BCS + (III)) was 7.0 µg/mL and the I50 with pre-incubation ([4]; with pre-incubation of enzyme and inhibitor, yield of (III) from hydrogenation taken as 35%) was 0.01 µg/mL. The I50 without pre-incubation ([4]; without pre-incubation of enzyme and inhibitor, yield of (III) taken as 35%) was 1 µg/mL.
For `O=CC=C1CN2C(=O)CC2O1` (stereo not shown) [(V), 3-oxoethylidene-7-oxo-4-oxa-1-azabicyclo [3.2.0] heptane], the “chemical and stereochemical stability” value ([1]; organic solution) was “chemically and stereochemically stable in organic solution”.
For `O=CC=C1OC2CC(=O)N2C1C(=O)O` (stereo not shown) [Compound (I), 3-oxoethylidene-7-oxo-4-oxa-1-azabicyclo-[3.2.0] heptane-2-carboxylic acid], the “rate of decomposition compared with I 111 broth supernatant” value ([1]; (I) chemically synthesised from 2R, 5R clavulanic acid) was “same rate of decomposition”, the half-life ([1]; aqueous solution, read-out: half life in aqueous solution (converted)) was roughly 30 min and the half-life ([1]; at 21° C., read-out: half-life) was roughly 30 min. For the same molecule, the “β-lactamase inhibitory activity (in words)” value ([5]; chemically synthesised) was “shown to possess β-lactamase inhibitory activity; also recorded: Strong β-lactamase activity” and the “activity as a β-lactamase inhibitor relative to clavulanic acid” value ([5]; more active than clavulanic acid) was “approximately 100 times”.

Reference: patent US6692950B1, “Clavulanic acid dehydrogenase, preparation and use for the production of clavulanic acid” (SmithKline Beecham plc, priority 1993, dated 2004)
